Here are results for one compound from US20070099958A1, “Protease inhibitors” (ProZymex A/S, priority 2003, published 2007).

One series has as its target T1, CYP3A4 (Homo sapiens, UniProt P08684).
T1 construct: purchased PanVera
The series is described as follows: CYP3A4 assay (Vivid CYP3A4 Red Screening Kit). Conditions: read-out: Metabolism: CYP enzymes (20 μM cutoff or IC50) CYP3A4. It is filed as in vitro ADME. On the procedure:
(§1) Following the procedure for CYP1A2, using the appropriate kits below, the effect of a compound of the invention on the other CYP enzymes was determined:
Vivid® CYP3A4 Red Screening Kit from PanVera.

In a further series the target is T2, CYP2D6 (Homo sapiens, UniProt P10635).
T2 construct: purchased PanVera
T2 sequence (P10635 whole entry): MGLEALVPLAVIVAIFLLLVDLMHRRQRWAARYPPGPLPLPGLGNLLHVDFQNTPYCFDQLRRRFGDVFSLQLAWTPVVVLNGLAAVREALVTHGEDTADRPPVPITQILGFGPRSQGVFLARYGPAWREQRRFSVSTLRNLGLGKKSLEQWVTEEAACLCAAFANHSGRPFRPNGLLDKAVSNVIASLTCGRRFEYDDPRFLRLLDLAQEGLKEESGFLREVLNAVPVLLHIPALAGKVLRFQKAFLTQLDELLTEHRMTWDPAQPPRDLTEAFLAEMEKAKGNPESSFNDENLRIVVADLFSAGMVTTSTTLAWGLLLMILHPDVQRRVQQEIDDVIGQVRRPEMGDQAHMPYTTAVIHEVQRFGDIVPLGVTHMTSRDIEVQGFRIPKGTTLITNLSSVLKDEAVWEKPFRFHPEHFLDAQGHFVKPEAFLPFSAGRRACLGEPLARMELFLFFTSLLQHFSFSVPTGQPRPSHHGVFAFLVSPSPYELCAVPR
As to the kind of experiment: CYP2D6 assay (Vivid CYP2D6 Cyan Screening Kit). It is filed as in vitro ADME. Conditions: read-out: Metabolism: CYP enzymes (20 μM cutoff or IC50) CYP2D6. On the procedure: as §1
Vivid® CYP2D6 Cyan Screening Kit from PanVera.

The target of another series is T3, Human DPP-I (Homo sapiens, UniProt P53634).
T3 construct: purchased UniZyme A/S
T3 sequence (P53634 231-394 limits assumed): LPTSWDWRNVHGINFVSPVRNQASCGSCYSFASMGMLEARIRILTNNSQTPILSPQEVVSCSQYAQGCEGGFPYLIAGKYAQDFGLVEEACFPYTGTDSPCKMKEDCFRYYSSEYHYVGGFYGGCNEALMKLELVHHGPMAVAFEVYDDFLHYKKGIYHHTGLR
T3 sequence (P53634 395-463 limits assumed): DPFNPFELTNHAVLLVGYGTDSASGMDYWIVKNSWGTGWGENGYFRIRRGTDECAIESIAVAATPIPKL
T3 sequence (P53634 25-143 limits assumed): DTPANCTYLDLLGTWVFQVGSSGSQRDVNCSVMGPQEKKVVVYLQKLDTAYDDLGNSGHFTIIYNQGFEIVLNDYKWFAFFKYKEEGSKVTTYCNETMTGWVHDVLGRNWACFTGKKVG
As to the kind of experiment: Human dipeptidyl peptidase I (DPP-I) assay. It is filed as biochemical. Conditions: Gly-Phe-AFC substrate, pH 6.0, 37° C.; read-out: Primary enzymatic screening (IC50) DPP-I. On the procedure:
Human dipeptidyl Peptidase I (DPP-I) Assay
Using this assay, the IC50 value of a compound of the invention as a DPP-I inhibitor was determined using an AFC substrate.
100 mM sodium phosphate (8.9 g Na2HPO4; M=177.99), 150 mM KCl (5.6 g KCl; M=74.6) and 1.5 mM EDTA (279 mg EDTA; M=372.2) was dissolved in 500 mL H2O, and pH was adjusted to 6.0. Cysteine*HCl (Sigma C-1276; M=157.6), 1 mg/mL assay buffer, corresponding to 6 mM, was added to the solution for activation of the DPP-1 enzyme.
Gly-Phe-AFC*TFA (Enzyme Systems Products AFC-033) was used as the substrate for determination of IC50 values. Km was 270 μM. The substrate was solubilized in DMSO to give a 7.5 mM stock solution (2.2 mg of substrate was added to 0.5 mL DMSO).
Human DPP-I (hDDP-I; obtained from UniZyme A/S, DK-2970Hørsholm, Denmark) was stored at −20° C. in a buffer containing 2.5 mM Na-phosphate, 150 mM NaCl, 2 mM cysteamine, 50% glycerol, pH 7.0 at a concentration of 2.5 mg/mL. This stock solution was diluted 200 times in the assay buffer.
The assay was performed in 96-well plates. […] The excitation wavelength was 400 nm, and the emission was measured at 505 nm for 10 minutes at 37° C. […] In the software (SOFTmax Pro) used for data collection from the fluorometer (Molecular Devices: Gemini XS), it was ensured that the measured slopes were linear (R^2>0.99). […]

T1 sequence (P08684 2-503 limits assumed): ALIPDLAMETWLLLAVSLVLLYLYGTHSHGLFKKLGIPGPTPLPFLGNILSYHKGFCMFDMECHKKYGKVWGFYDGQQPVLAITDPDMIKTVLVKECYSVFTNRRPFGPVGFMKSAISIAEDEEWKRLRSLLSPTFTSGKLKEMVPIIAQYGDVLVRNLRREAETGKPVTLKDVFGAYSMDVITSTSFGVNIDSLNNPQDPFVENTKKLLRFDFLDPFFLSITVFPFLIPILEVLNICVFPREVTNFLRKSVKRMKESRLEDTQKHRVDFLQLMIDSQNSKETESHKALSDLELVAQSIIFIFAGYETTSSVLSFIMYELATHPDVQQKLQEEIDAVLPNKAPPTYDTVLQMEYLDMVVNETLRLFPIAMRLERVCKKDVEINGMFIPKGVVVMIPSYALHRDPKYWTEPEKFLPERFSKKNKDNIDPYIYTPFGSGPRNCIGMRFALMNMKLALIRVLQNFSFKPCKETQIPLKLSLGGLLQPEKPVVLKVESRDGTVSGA

By IC50 is commonly meant the concentration needed to halve the response being measured. As to `CC[C@H](N)C(=O)N[C@H](C#N)Cc1ccc(-c2ccccc2)cc1` [Example 5, (2S)—N-[(2S)-2-aminobutanoyl]-2-amino-3-(1,1′-biphenyl-4-yl)propionitrile], the values for the IC50 at CYP3A4, on CYP2D6 and on Human DPP-I were 3.6 ± 3.41 µM, 12.6 ± 0.677 µM and 0.013 ± 0.003 µM, respectively.
